Test results published in US3946006A, “Tetrahydrothiadiazinethiones” (Sterling Drug Inc., priority 1974, dated 1976).

Key:
Test in all cases: minimal inhibiting concentration (MIC), filter disc agar plate test
Type in all cases: cell-based
Staphylococcus aureus = details: S. aureus; nutrient agar, 24 hours incubation
Method: (§1) The bacteriological effectiveness of the compounds of the invention was determined with reference to minimal inhibiting concentrations, that is, the minimal concentration that will effect complete inhibition of germ growth (MIC). The test procedure is as follows:
(§2) A 1% suspension, botained by homogenizing 500 mg. of the test agent in 50 ml. of 0.5% natrosol solution (natrosol 250 HRPS = hydroxymethylcellulose), is serially diluted with 0.5% natrosol solution to provide suspensions, in sterile test tubes, having concentrations of 0.1, 0.05, 0.01 and 0.005 percent. To ensure accuracy in dilution, the suspensions are mixed with the aid of a mechanical mixer. The dilutions (6 ml.) are added to sterile cups and immediately 10 filter discs (.phi. about 10 mm) are placed on the surface of the liquid in each cup. The filter discs, which slowly sink to the bottom on becoming saturated, are left in the solutions for one hour. 16-Hour old cultures of Escherichia coli, Staphylococcus aureus, Pyoceanus fluorescens and Proteus vulgaris are diluted at the ratio of 1:10 in glucose broth. 1-Week cultures of Penicillium glaucum, Aspergillus niger, Chaetomium globosum, Trichoderma viride, Humicola sp., Scopulariopsis brevicaulis, Pullularia pullulans, Sclerophoma pityophila, Saccharomyces cerevisiae and Candida albicans are harvested by rinsing and diluted 1:10 in nutrient broth.
(§3) Standard II nutrient agar plates, with an addition of lactose and bromothymol blue (BROLAC agar) for bacteria, and Sabouraud agar plates for yeasts and fungi, are dried and labeled (10 Sabouraud agar plates and 4 nutrient agar plates were used per preparation). Of the diluted germ suspensions, 0.05 ml (1 drop) is inoculated onto each plate. Prior to further treatment, the plates are allowed to stand for one-half hour to absorb the germ suspension. Filter discs, corresponding to each of the five dilutions, are placed on the surface of each inoculated plate for each culture (step 1). The plates are examined for zones of inhibition after twenty-four hours incubation in the case of bacteria, and after three days incubation in the case of yeasts and fungi. Antimicrobial activity is indicated by occurance of a zone of inhibition. In the case of bacteria, the purity of the culture can be determined at the same time by lactose fermentation as indicated by color change in the nutrient medium. A visible inhibition ring is designated as negative growth an no inhibition ring as 3+ growth. […] A new dilution series then is prepared, with only one, or at most two, filter discs being placed on the surface of each plate for each culture. Activity is then determined as described above.
(§4) The MIC values, expressed in percent concentration of the test agent, is presented in TAble 1 for compounds of the invention having formula I designated Example 1 (R--O--A = CH2 CH2 OCH3), Example 2 (R--O--A = CH2 CH2 OCH3) and Example 4(R--O--A = CH2 CH2 CH2 OCH2 CH3), and for two known compounds, designated A (3,5-dibenzyl-tetrahydro-2H-1,3,5-thiadiazine-2-thione) and B[3,5-bis(2-hydroxyethyl)-2H-1,3,5-thiadiazine-2-thione].

Chaetomium globosum = details: C. globosum; Sabouraud agar, three days incubation
Method: as §1, §2, §3, §4

Aspergillus niger = details: A. niger; Sabouraud agar, three days incubation
Method: as §1, §2, §3, §4

Penicillium glaucum = details: P. glaucum; Sabouraud agar, three days incubation
Method: as §1, §2, §3, §4

Escherichia coli = details: E. coli; nutrient agar, 24 hours incubation
Method: as §1, §2, §3, §4

Pyoceanus fluorescens = details: P. fluorescens; nutrient agar, 24 hours incubation
Method: as §1, §2, §3, §4

Saccharomyces cerevisiae = details: S. cerevisiae; Sabouraud agar, three days incubation
Method: as §1, §2, §3, §4

Candida albicans = details: C. albicans; Sabouraud agar, three days incubation
Method: as §1, §2, §3, §4

Humicola sp. = details: Sabouraud agar, three days incubation
Method: as §1, §2, §3, §4

Proteus vulgaris = details: P. vulgaris; nutrient agar, 24 hours incubation
Method: as §1, §2, §3, §4

Trichoderma viride = details: T. viride; Sabouraud agar, three days incubation
Method: as §1, §2, §3, §4

Pullularia pullulans = details: P. pullulans; Sabouraud agar, three days incubation
Method: as §1, §2, §3, §4

[1] = tested on: Scopulariopsis brevicaulis; details: S. brevicaulis; Sabouraud agar, three days incubation
Method: as §1, §2, §3, §4

Sclerophoma pityophila = details: S. pityophila; Sabouraud agar, three days incubation
Method: as §1, §2, §3, §4

Row | Structure (SMILES) | MIC (Staphylococcus aureus) | MIC (Chaetomium globosum) | MIC (Aspergillus niger) | MIC (Penicillium glaucum) | MIC (Escherichia coli) | MIC (Pyoceanus fluorescens) | MIC (Saccharomyces cerevisiae) | MIC (Candida albicans) | MIC (Humicola sp.) | MIC (Proteus vulgaris) | MIC (Trichoderma viride) | MIC (Pullularia pullulans) | MIC [1] | MIC (Sclerophoma pityophila)
1 | S=C1SCN(Cc2ccccc2)CN1Cc1ccccc1 [A, 3,5-dibenzyl-tetrahydro-2H-1,3,5-thiadiazine-2-thione, reference compound] | 1 % conc. | > 1 % conc. | > 1 % conc. | > 1 % conc. | 1 % conc. | 1 % conc. | > 1 % conc. | > 1 % conc. | > 1 % conc. | 1 % conc. | > 1 % conc. | > 1 % conc. | > 1 % conc. | > 1 % conc.
2 | OCCN1CSC(=S)N(CCO)C1 [B, 3,5-bis(2-hydroxyethyl)-2H-1,3,5-thiadiazine-2-thione, reference compound] | 0.05 % conc. | 1 % conc. | 1 % conc. | 1 % conc. | 1 % conc. | 0.1 % conc. | 0.1 % conc. | 1 % conc. | 0.1 % conc. | 1 % conc. | 1 % conc. | 0.01 % conc. | 0.1 % conc. | 0.01 % conc.
3 | COCCCN1CSC(=S)N(CCCOC)C1 [Ex. 1, 3,5-Bis(3-methoxypropyl)-tetrahydro-2H-1,3,5-thiadiazine-2-thione] | 0.05 % conc. | 0.005 % conc. | 0.03 % conc. | 0.005 % conc. | 0.1 % conc. | 0.1 % conc. | 0.05 % conc. | 0.05 % conc. | 0.01 % conc. | 0.1 % conc. | 0.03 % conc. | 0.005 % conc. | 0.005 % conc. | 0.005 % conc.
4 | COCCN1CSC(=S)N(CCOC)C1 [Ex. 2, 3,5-Bis(2-methoxyethyl)-tetrahydro-2H-1,3,5-thiadiazine-2-thione] | 0.07 % conc. | 0.01 % conc. | 0.1 % conc. | 0.05 % conc. | 0.1 % conc. | 0.1 % conc. | 0.01 % conc. | 0.05 % conc. | < 0.005 % conc. | 0.1 % conc. | 0.1 % conc. | 0.05 % conc. | < 0.005 % conc. | < 0.005 % conc.
5 | CCOCCCN1CSC(=S)N(CCCOCC)C1 [Ex. 4, 3,5-Bis(3-ethoxypropyl)-tetrahydro-2H-1,3,5-thiadiazine-2-thione] | 0.05 % conc. | – | < 0.003 % conc. | < 0.003 % conc. | 0.1 % conc. | 0.1 % conc. | < 0.003 % conc. | 0.01 % conc. | – | 0.05 % conc. | – | < 0.003 % conc. | – | < 0.003 % conc.
